Source: patent publication US7307061B2, “β-peptoids with antimicrobial activity” (E.I. du Pont de Nemours and Company, priority 2004, dated 2007)
Values after ≈ are worked out from the molar mass of the structure shown.

Test system: E. coli ATCC 25922
Format: cell-based
Conditions: ATCC 25922, 24 h
Description: The minimal inhibitory concentration (MIC) for the peptoids was determined in sterile microtiter plates in a final volume of 200 μl using Trypticase Soy Broth (TSB; Difco Laboratories, Detroit, Mich.) as the growth medium. Serial two-fold dilutions of the peptoid stock were made in the plate wells such that concentrations ranged from 512 to 2 μg/ml in a volume of 100 μL. Each well was then inoculated with 100 μl of a dilute suspension of bacteria in TSB yielding a final concentration of 1×10^4 bacteria/ml. The final peptoid concentrations ranged from 256 μg/ml to […]. The assay plates were incubated at 37° C. for 24 hours inside a Bioscreen C microtitre plate reader (Thermo Labsystems; Vantaa, Finland). Optical Density (OD) of the medium at 600 nm was recorded every 20 minutes to monitor cell growth. The lowest concentration of peptoid preventing bacterial growth during the 24 hr period was defined as the MIC.
Table 1. Antibacterial activity of peptoids against E. coli ATCC 25922. The general structure for each of the Compounds 20 to 41 is represented by Formula V: […]

Compound	MIC [µg/mL]
CC(=O)N(CCC(=O)N(CCN)CCC(=O)N(CCC(=O)N(CCN)CCC(=O)N(CCC(=O)N(CCN)CCC(=O)N(CCC(=O)N(CCN)CCC(=O)N(CCC(=O)N(CCN)CCC(=O)NC(CCCCN)C(N)=O)CC(C)C)CC(C)C)CC(C)C)CC(C)C)CC(C)C (centres unmarked) [Compound 30, Ac(Ibu-Aminoethyl)5-Lys-NH2]	>256
CC(=O)N(CCC(=O)N(CCC(=O)N(CCN)CCC(=O)N(CCC(=O)N(CCC(=O)N(CCN)CCC(=O)N(CCC(=O)N(CCC(=O)N(CCN)CCC(=O)N(CCC(=O)N(CCC(=O)N(CCN)CCC(=O)N(CCC(=O)N(CCC(=O)N(CCN)CCC(=O)NC(CCCCN)C(N)=O)CC(C)C)CC(C)C)CC(C)C)CC(C)C)CC(C)C)CC(C)C)CC(C)C)CC(C)C)CC(C)C)CC(C)C (stereo not drawn) [Compound 36, Ac(Ibu-Ibu-Aminoethyl)5-Lys-NH2]	256 (≈ 126 µM)
CC(=O)N(CCC(=O)N(CCN)CCC(=O)N(CCC(=O)N(CCN)CCC(=O)N(CCC(=O)N(CCN)CCC(=O)N(CCC(=O)N(CCN)CCC(=O)N(CCC(=O)N(CCN)CCC(=O)N(CCC(=O)N(CCN)CCC(=O)NC(CCCCN)C(N)=O)CC(C)C)CC(C)C)CC(C)C)CC(C)C)CC(C)C)CC(C)C (centres unmarked) [Compound 26, Ac(Ibu-Aminoethyl)6-Lys-NH2]	128 (≈ 78.3 µM)
CC(=O)N(CCC(=O)N(CCN)CCC(=O)N(CCC(=O)N(CCN)CCC(=O)N(CCC(=O)N(CCN)CCC(=O)N(CCC(=O)N(CCN)CCC(=O)N(CCC(=O)N(CCN)CCC(=O)N(CCC(=O)N(CCN)CCC(=O)N(CCC(=O)N(CCN)CCC(=O)N(CCC(=O)N(CCN)CCC(=O)NC(CCCCN)C(N)=O)CC(C)C)CC(C)C)CC(C)C)CC(C)C)CC(C)C)CC(C)C)CC(C)C)CC(C)C (centres unmarked) [Compound 32, Ac(Ibu-Aminoethyl)8-Lys-NH2]	256 (≈ 121 µM)
CC(=O)N(CCC(=O)N(CCCN(C)C)CCC(=O)N(CCC(=O)N(CCCN(C)C)CCC(=O)N(CCC(=O)N(CCCN(C)C)CCC(=O)N(CCC(=O)N(CCCN(C)C)CCC(=O)N(CCC(=O)N(CCCN(C)C)CCC(=O)NC(CCCCN)C(N)=O)CC(C)C)CC(C)C)CC(C)C)CC(C)C)CC(C)C (centres unmarked) [Compound 27, Ac(Ibu-DMAP)5-Lys-NH2]	>512
CC(=O)N(CCC(=O)N(CCCN(C)C)CCC(=O)N(CCC(=O)N(CCCN(C)C)CCC(=O)N(CCC(=O)N(CCCN(C)C)CCC(=O)N(CCC(=O)N(CCCN(C)C)CCC(=O)N(CCC(=O)N(CCCN(C)C)CCC(=O)N(CCC(=O)N(CCCN(C)C)CCC(=O)N(CCC(=O)N(CCCN(C)C)CCC(=O)N(CCC(=O)N(CCCN(C)C)CCC(=O)NC(CCCCN)C(N)=O)CC(C)C)CC(C)C)CC(C)C)CC(C)C)CC(C)C)CC(C)C)CC(C)C)CC(C)C (centres unmarked) [Compound 29, Ac(Ibu-DMAP)8-Lys-NH2]	>512
CC(=O)N(CCC(=O)N(CCCN(C)C)CCC(=O)N(CCC(=O)N(CCC(=O)N(CCCN(C)C)CCC(=O)N(CCC(=O)N(CCC(=O)N(CCCN(C)C)CCC(=O)N(CCC(=O)NC(CCCCN)C(N)=O)CC(C)C)Cc1ccccc1)CC(C)C)Cc1ccccc1)CC(C)C)Cc1ccccc1 (centres unmarked) [Compound 20, Ac(Bz-DMAP-Ibu)3-Lys-NH2]	128 (≈ 84.1 µM)
CC(=O)N(CCC(=O)N(CCCCN)CCC(=O)N(CCC(=O)N(CCCCN)CCC(=O)N(CCC(=O)N(CCCCN)CCC(=O)NC(CCCCN)C(N)=O)CC(C)C)CC(C)C)CC(C)C (centres unmarked) [Compound 41, Ac(Ibu-Aminobutyl)3-Lys-NH2]	512 (≈ 514 µM)
CC(=O)N(CCC(=O)N(CCC(=O)N(CCN)CCC(=O)N(CCC(=O)N(CCC(=O)N(CCN)CCC(=O)N(CCC(=O)N(CCC(=O)N(CCN)CCC(=O)NC(CCCCN)C(N)=O)CC(C)C)CC(C)C)CC(C)C)CC(C)C)CC(C)C)CC(C)C (stereo not drawn) [Compound 33, Ac(Ibu-Ibu-Aminoethyl)3-Lys-NH2]	>512
CC(=O)N(CCC(=O)N(CCC(=O)N(CCCN(C)C)CCC(=O)N(CCC(=O)N(CCC(=O)N(CCCN(C)C)CCC(=O)N(CCC(=O)N(CCC(=O)N(CCCN(C)C)CCC(=O)NC(CCCCN)C(N)=O)CC(C)C)Cc1ccccc1)CC(C)C)Cc1ccccc1)CC(C)C)Cc1ccccc1 (centres unmarked) [Compound 23, Ac(Bz-Ibu-DMAP)3-Lys-NH2]	512 (≈ 337 µM)
CC(=O)N(CCC(=O)N(CCC(=O)N(CCN)CCC(=O)N(CCC(=O)N(CCC(=O)N(CCN)CCC(=O)N(CCC(=O)N(CCC(=O)N(CCN)CCC(=O)N(CCC(=O)N(CCC(=O)N(CCN)CCC(=O)NC(CCCCN)C(N)=O)CC(C)C)CC(C)C)CC(C)C)CC(C)C)CC(C)C)CC(C)C)CC(C)C)CC(C)C (stereo not drawn) [Compound 34, Ac(Ibu-Ibu-Aminoethyl)4-Lys-NH2]	256 (≈ 154 µM)
CC(=O)N(CCC(=O)N(CCC(=O)N(CCCN(C)C)CCC(=O)N(CCC(=O)N(CCC(=O)N(CCCN(C)C)CCC(=O)N(CCC(=O)N(CCC(=O)N(CCCN(C)C)CCC(=O)N(CCC(=O)N(CCC(=O)N(CCCN(C)C)CCC(=O)NC(CCCCN)C(N)=O)CC(C)C)Cc1ccccc1)CC(C)C)Cc1ccccc1)CC(C)C)Cc1ccccc1)CC(C)C)Cc1ccccc1 (centres unmarked) [Compound 24, Ac(Bz-Ibu-DMAP)4-Lys-NH2]	128 (≈ 65.1 µM)
CC(=O)N(CCC(=O)N(CCCN(C)C)CCC(=O)N(CCC(=O)N(CCC(=O)N(CCCN(C)C)CCC(=O)N(CCC(=O)N(CCC(=O)N(CCCN(C)C)CCC(=O)N(CCC(=O)N(CCC(=O)N(CCCN(C)C)CCC(=O)N(CCC(=O)N(CCC(=O)N(CCCN(C)C)CCC(=O)N(CCC(=O)N(CCC(=O)N(CCCN(C)C)CCC(=O)N(CCC(=O)NC(CCCCN)C(N)=O)CC(C)C)Cc1ccccc1)CC(C)C)Cc1ccccc1)CC(C)C)Cc1ccccc1)CC(C)C)Cc1ccccc1)CC(C)C)Cc1ccccc1)CC(C)C)Cc1ccccc1 (centres unmarked) [Compound 22, Ac(Bz-DMAP-Ibu)6-Lys-NH2]	128 (≈ 44.8 µM)
CC(=O)N(CCC(=O)N(CCCN(C)C)CCC(=O)N(CCC(=O)N(CCC(=O)N(CCCN(C)C)CCC(=O)N(CCC(=O)N(CCC(=O)N(CCCN(C)C)CCC(=O)N(CCC(=O)N(CCC(=O)N(CCCN(C)C)CCC(=O)N(CCC(=O)N(CCC(=O)N(CCCN(C)C)CCC(=O)N(CCC(=O)NC(CCCCN)C(N)=O)CC(C)C)Cc1ccccc1)CC(C)C)Cc1ccccc1)CC(C)C)Cc1ccccc1)CC(C)C)Cc1ccccc1)CC(C)C)Cc1ccccc1 (centres unmarked) [Compound 21, Ac(Bz-DMAP-Ibu)5-Lys-NH2]	128 (≈ 53.1 µM)
CC(=O)N(CCC(=O)N(CCC(=O)N(CCCCN)CCC(=O)N(CCC(=O)N(CCC(=O)N(CCCCN)CCC(=O)N(CCC(=O)N(CCC(=O)N(CCCCN)CCC(=O)NC(CCCCN)C(N)=O)CC(C)C)CC(C)C)CC(C)C)CC(C)C)CC(C)C)CC(C)C (stereo not drawn) [Compound 38, Ac(Ibu-Ibu-Aminobutyl)3-Lys-NH2]	>512
CC(=O)N(CCC(=O)N(CCC(=O)N(CCCCN)CCC(=O)N(CCC(=O)N(CCC(=O)N(CCCCN)CCC(=O)NC(CCCCN)C(N)=O)CC(C)C)CC(C)C)CC(C)C)CC(C)C (stereo not drawn) [Compound 37, Ac(Ibu-Ibu-Aminobutyl)2-Lys-NH2]	>512
CC(=O)N(CCC(=O)N(CCC(=O)N(CCCN(C)C)CCC(=O)N(CCC(=O)N(CCC(=O)N(CCCN(C)C)CCC(=O)N(CCC(=O)N(CCC(=O)N(CCCN(C)C)CCC(=O)N(CCC(=O)N(CCC(=O)N(CCCN(C)C)CCC(=O)N(CCC(=O)N(CCC(=O)N(CCCN(C)C)CCC(=O)NC(CCCCN)C(N)=O)CC(C)C)Cc1ccccc1)CC(C)C)Cc1ccccc1)CC(C)C)Cc1ccccc1)CC(C)C)Cc1ccccc1)CC(C)C)Cc1ccccc1 (centres unmarked) [Compound 25, Ac(Bz-Ibu-DMAP)5-Lys-NH2]	128 (≈ 53.1 µM)
